Reference: patent publication US20100286076A1, “ECTOPARASITICIDAL METHODS AND FORMULATIONS” (priority 2009, published 2010)

Assays:
Type in all cases: in vivo
[1] = test system: adult stage American dog ticks, Dermacentor variabilis; experiment: Oral administration per os to dogs, experimental American dog tick infestation; conditions: at the doses tested (30 mg/kg)
Description: (§1) Oral administration per os to dogs. Given the above data, investigation into oral efficacy in dogs was begun. The investigation was conducted to evaluate 1) efficacy for a point dose of 30 mg/kg, against experimental, concurrent infestations with the adult cat flea, Ctenocephalides felis; adult stage American dog ticks, Dermacentor variabilis; and adult stage kennel ticks, Rhipicephalus sanguineus; 2) plasma concentrations of the 30 mg/kg treated dogs; and 3) efficacy for point dosages of either 50 mg/kg or 100 mg/kg, against experimental infestations with adult stage kennel ticks, R. sanguineus.
(§2) Sixteen dogs were selected for two groups of eight dogs (4 male: 4 female) per group. One treatment group received spinetoram, while the other group was left untreated. The dogs were housed individually in concrete-floored chain-link kennels both inside and outside. During the study period the dogs were fed a dry dog chow, except for the day of treatment (day 0) when they received wet canned food. The dogs had ad libitum access to water. […]
(§3) Each dog was experimentally infested with about 100 adult fleas, and 50 ticks of each species on test days—1,5,12,19, 28, 35, and 42, with additional flea infestations conducted on days 49 and 56. […] Knockdown activity (Day 1) was determined using 24 hr post-dosing comb counts. […]

[2] = test system: adult stage kennel ticks, Rhipicephalus sanguineus; experiment: Oral administration per os to dogs, experimental kennel tick infestation; conditions: at the doses tested (30, 50 or 100 mg/kg)
Description: as §1, §2, §3

Ctenocephalides felis = experiment: Pulse vs. single dose administration per os to dogs, flea infestation comb counts
Description: Pulse vs. Single dose administration per os to dogs/Ctenocephalides felis Another dog study was undertaken to evaluate the effect on flea infestation of 1) oral administration of a single point dose of 60 mg/kg; 2) oral administration of a pulsed dosing scheme of 20 mg/kg TID every 2 hours for one day; 3) oral administration of a pulsed dosing scheme of 20 mg/kg TID every 4 hours for one day; and 4) post-treatment plasma concentration of spinetoram.
Four treatment groups of 8 dogs each (4 male: 4 female) were dosed spinetoram as follows:
Treatment Group 1: 60 mg/kg, single dose
Treatment Group 2: 60 mg/kg, (20 mg/kg every 2 hours, three times)
Treatment Group 3: 60 mg/kg, (20 mg/kg every 4 hours, three times)
Treatment Group 4: 0 mg/kg, (negative control)
The dogs were housed individually in concrete-floored chain-link kennels both inside and outside. During the study period the dogs were fed a dry dog chow, except for two days prior to and the day of treatment (day 0) when they received wet canned food. The dogs had ad libitum access to water.
The treated dogs received one or more gelatin capsules containing technical active spinetoram powder by mouth, with treatment group 4 receiving placebo. Each dog was experimentally infested with about 100 fleas on test days—1,5,12,19, 28, 35, 42, 49, and 56. Knockdown assessments were conducted 24 hours after dosing, with residual efficacy evaluated subsequently at 48 hours after each subsequent infestation. The day 1 comb count served to determine the initial/knockdown efficacy, approximately 24 hours after the 60 mg/kg dose, or the first of the pulse dose. Blood samples were drawn to determine concentration of spinetoram in plasma.

Spinetoram
activity against ticks [1]: did not demonstrate statistically significant activity | activity against ticks [2]: did not demonstrate statistically significant activity | geometric mean live adult flea count (Ctenocephalides felis; oral 20 mg/kg TID@2 h, Day 1): 0.0 | geometric mean percent reduction in live adult flea counts compared to the untreated control group (Ctenocephalides felis; oral 20 mg/kg TID@2 h, Day 1): (100) percent | geometric mean live adult flea count (Ctenocephalides felis; oral 20 mg/kg TID@2 h, Day 7): 0.0 | geometric mean percent reduction in live adult flea counts compared to the untreated control group (Ctenocephalides felis; oral 20 mg/kg TID@2 h, Day 7): (100) percent | geometric mean live adult flea count (Ctenocephalides felis; oral 20 mg/kg TID@2 h, Day 14): 0.0 | geometric mean percent reduction in live adult flea counts compared to the untreated control group (Ctenocephalides felis; oral 20 mg/kg TID@2 h, Day 14): (100) percent | geometric mean live adult flea count (Ctenocephalides felis; oral 20 mg/kg TID@2 h, Day 21): 0.0 | geometric mean percent reduction in live adult flea counts compared to the untreated control group (Ctenocephalides felis; oral 20 mg/kg TID@2 h, Day 21): (100) percent | geometric mean live adult flea count (Ctenocephalides felis; oral 20 mg/kg TID@2 h, Day 30): 0.0 | geometric mean percent reduction in live adult flea counts compared to the untreated control group (Ctenocephalides felis; oral 20 mg/kg TID@2 h, Day 30): (100) percent | geometric mean live adult flea count (Ctenocephalides felis; oral 20 mg/kg TID@2 h, Day 37): 0.0 | geometric mean percent reduction in live adult flea counts compared to the untreated control group (Ctenocephalides felis; oral 20 mg/kg TID@2 h, Day 37): (100) percent | geometric mean live adult flea count (Ctenocephalides felis; oral 20 mg/kg TID@2 h, Day 44): 0.0 | geometric mean percent reduction in live adult flea counts compared to the untreated control group (Ctenocephalides felis; oral 20 mg/kg TID@2 h, Day 44): (100) percent | geometric mean live adult flea count (Ctenocephalides felis; oral 20 mg/kg TID@2 h, Day 51): 0.0 | geometric mean percent reduction in live adult flea counts compared to the untreated control group (Ctenocephalides felis; oral 20 mg/kg TID@2 h, Day 51): (100) percent | geometric mean live adult flea count (Ctenocephalides felis; oral 20 mg/kg TID@2 h, Day 58): 0.0 | geometric mean percent reduction in live adult flea counts compared to the untreated control group (Ctenocephalides felis; oral 20 mg/kg TID@2 h, Day 58): (100) percent | geometric mean live adult flea count (Ctenocephalides felis; oral 20 mg/kg TID@2 h, Day 72): 0.0 | geometric mean percent reduction in live adult flea counts compared to the untreated control group (Ctenocephalides felis; oral 20 mg/kg TID@2 h, Day 72): (100) percent | geometric mean live adult flea count (Ctenocephalides felis; oral 20 mg/kg TID@2 h, Day 86): 6.4 | geometric mean percent reduction in live adult flea counts compared to the untreated control group (Ctenocephalides felis; oral 20 mg/kg TID@2 h, Day 86): (91.7) percent | geometric mean live adult flea count (Ctenocephalides felis; oral 20 mg/kg TID@2 h, Day 93): 2.5 | geometric mean percent reduction in live adult flea counts compared to the untreated control group (Ctenocephalides felis; oral 20 mg/kg TID@2 h, Day 93): (96.7) percent | geometric mean live adult flea count (Ctenocephalides felis; oral 20 mg/kg TID@2 h, Day 100): 10.0 | geometric mean percent reduction in live adult flea counts compared to the untreated control group (Ctenocephalides felis; oral 20 mg/kg TID@2 h, Day 100): (88.0) percent | geometric mean live adult flea count (Ctenocephalides felis; oral 20 mg/kg TID@2 h, Day 107): 4.8 | geometric mean percent reduction in live adult flea counts compared to the untreated control group (Ctenocephalides felis; oral 20 mg/kg TID@2 h, Day 107): (94.1) percent | geometric mean live adult flea count (Ctenocephalides felis; oral 20 mg/kg TID@4 h, Day 1): 0.0 | geometric mean percent reduction in live adult flea counts compared to the untreated control group (Ctenocephalides felis; oral 20 mg/kg TID@4 h, Day 1): (100) percent | geometric mean live adult flea count (Ctenocephalides felis; oral 20 mg/kg TID@4 h, Day 7): 0.0 | geometric mean percent reduction in live adult flea counts compared to the untreated control group (Ctenocephalides felis; oral 20 mg/kg TID@4 h, Day 7): (100) percent | geometric mean live adult flea count (Ctenocephalides felis; oral 20 mg/kg TID@4 h, Day 14): 0.0 | geometric mean percent reduction in live adult flea counts compared to the untreated control group (Ctenocephalides felis; oral 20 mg/kg TID@4 h, Day 14): (100) percent | geometric mean live adult flea count (Ctenocephalides felis; oral 20 mg/kg TID@4 h, Day 21): 0.0 | geometric mean percent reduction in live adult flea counts compared to the untreated control group (Ctenocephalides felis; oral 20 mg/kg TID@4 h, Day 21): (100) percent | geometric mean live adult flea count (Ctenocephalides felis; oral 20 mg/kg TID@4 h, Day 30): 0.2 | geometric mean percent reduction in live adult flea counts compared to the untreated control group (Ctenocephalides felis; oral 20 mg/kg TID@4 h, Day 30): (99.8) percent | geometric mean live adult flea count (Ctenocephalides felis; oral 20 mg/kg TID@4 h, Day 37): 0.0 | geometric mean percent reduction in live adult flea counts compared to the untreated control group (Ctenocephalides felis; oral 20 mg/kg TID@4 h, Day 37): (100) percent | geometric mean live adult flea count (Ctenocephalides felis; oral 20 mg/kg TID@4 h, Day 44): 0.0 | geometric mean percent reduction in live adult flea counts compared to the untreated control group (Ctenocephalides felis; oral 20 mg/kg TID@4 h, Day 44): (100) percent | geometric mean live adult flea count (Ctenocephalides felis; oral 20 mg/kg TID@4 h, Day 51): 0.2 | geometric mean percent reduction in live adult flea counts compared to the untreated control group (Ctenocephalides felis; oral 20 mg/kg TID@4 h, Day 51): (99.7) percent | geometric mean live adult flea count (Ctenocephalides felis; oral 20 mg/kg TID@4 h, Day 58): 0.0 | geometric mean percent reduction in live adult flea counts compared to the untreated control group (Ctenocephalides felis; oral 20 mg/kg TID@4 h, Day 58): (100) percent | geometric mean live adult flea count (Ctenocephalides felis; oral 20 mg/kg TID@4 h, Day 72): 0.2 | geometric mean percent reduction in live adult flea counts compared to the untreated control group (Ctenocephalides felis; oral 20 mg/kg TID@4 h, Day 72): (99.8) percent | geometric mean live adult flea count (Ctenocephalides felis; oral 20 mg/kg TID@4 h, Day 86): 4.7 | geometric mean percent reduction in live adult flea counts compared to the untreated control group (Ctenocephalides felis; oral 20 mg/kg TID@4 h, Day 86): (93.8) percent | geometric mean live adult flea count (Ctenocephalides felis; oral 20 mg/kg TID@4 h, Day 93): 4.8 | geometric mean percent reduction in live adult flea counts compared to the untreated control group (Ctenocephalides felis; oral 20 mg/kg TID@4 h, Day 93): (93.7) percent | geometric mean live adult flea count (Ctenocephalides felis; oral 20 mg/kg TID@4 h, Day 100): 11.4 | geometric mean percent reduction in live adult flea counts compared to the untreated control group (Ctenocephalides felis; oral 20 mg/kg TID@4 h, Day 100): (86.3) percent | geometric mean live adult flea count (Ctenocephalides felis; oral 20 mg/kg TID@4 h, Day 107): 8.5 | geometric mean percent reduction in live adult flea counts compared to the untreated control group (Ctenocephalides felis; oral 20 mg/kg TID@4 h, Day 107): (89.6) percent | geometric mean live adult flea count (Ctenocephalides felis; oral 60 mg/kg SID, Day 1): 0.0 | geometric mean percent reduction in live adult flea counts compared to the untreated control group (Ctenocephalides felis; oral 60 mg/kg SID, Day 1): (100) percent | geometric mean live adult flea count (Ctenocephalides felis; oral 60 mg/kg SID, Day 7): 0.0 | geometric mean percent reduction in live adult flea counts compared to the untreated control group (Ctenocephalides felis; oral 60 mg/kg SID, Day 7): (100) percent | geometric mean live adult flea count (Ctenocephalides felis; oral 60 mg/kg SID, Day 14): 0.0 | geometric mean percent reduction in live adult flea counts compared to the untreated control group (Ctenocephalides felis; oral 60 mg/kg SID, Day 14): 100) percent | geometric mean live adult flea count (Ctenocephalides felis; oral 60 mg/kg SID, Day 21): 0.0 | geometric mean percent reduction in live adult flea counts compared to the untreated control group (Ctenocephalides felis; oral 60 mg/kg SID, Day 21): (100) percent | geometric mean live adult flea count (Ctenocephalides felis; oral 60 mg/kg SID, Day 30): 0.0 | geometric mean percent reduction in live adult flea counts compared to the untreated control group (Ctenocephalides felis; oral 60 mg/kg SID, Day 30): (100) percent | geometric mean live adult flea count (Ctenocephalides felis; oral 60 mg/kg SID, Day 37): 0.0 | geometric mean percent reduction in live adult flea counts compared to the untreated control group (Ctenocephalides felis; oral 60 mg/kg SID, Day 37): (100) percent | geometric mean live adult flea count (Ctenocephalides felis; oral 60 mg/kg SID, Day 44): 0.0 | geometric mean percent reduction in live adult flea counts compared to the untreated control group (Ctenocephalides felis; oral 60 mg/kg SID, Day 44): (100) percent | geometric mean live adult flea count (Ctenocephalides felis; oral 60 mg/kg SID, Day 51): 0.0 | geometric mean percent reduction in live adult flea counts compared to the untreated control group (Ctenocephalides felis; oral 60 mg/kg SID, Day 51): (100) percent | geometric mean live adult flea count (Ctenocephalides felis; oral 60 mg/kg SID, Day 58): 0.2 | geometric mean percent reduction in live adult flea counts compared to the untreated control group (Ctenocephalides felis; oral 60 mg/kg SID, Day 58): (99.8) percent | geometric mean live adult flea count (Ctenocephalides felis; oral 60 mg/kg SID, Day 72): 0.0 | geometric mean percent reduction in live adult flea counts compared to the untreated control group (Ctenocephalides felis; oral 60 mg/kg SID, Day 72): (100) percent | geometric mean live adult flea count (Ctenocephalides felis; oral 60 mg/kg SID, Day 86): 1.8 | geometric mean percent reduction in live adult flea counts compared to the untreated control group (Ctenocephalides felis; oral 60 mg/kg SID, Day 86): (97.7) percent | geometric mean live adult flea count (Ctenocephalides felis; oral 60 mg/kg SID, Day 93): 1.9 | geometric mean percent reduction in live adult flea counts compared to the untreated control group (Ctenocephalides felis; oral 60 mg/kg SID, Day 93): (97.5) percent | geometric mean live adult flea count (Ctenocephalides felis; oral 60 mg/kg SID, Day 100): 5.2 | geometric mean percent reduction in live adult flea counts compared to the untreated control group (Ctenocephalides felis; oral 60 mg/kg SID, Day 100): (93.7) percent | geometric mean live adult flea count (Ctenocephalides felis; oral 60 mg/kg SID, Day 107): 3.2 | geometric mean percent reduction in live adult flea counts compared to the untreated control group (Ctenocephalides felis; oral 60 mg/kg SID, Day 107): (96.2) percent
